Assay results from patent publication US20220009914A1, “Analogs of Nitrofuran Antibiotics to Combat Resistance” (The Trustees of Indiana University, priority 2020, published 2022).
pEC50, pIC50: −log10 of the molar value. Where two headings read alike, the source gives them in different places.

What was measured:
[1] = test system: Acinetobacter baumannii strain 2208 (ATCC 19606); settings: previously found; read-out: EC50 proliferation of A. baumannii; cited from earlier work
[2] = test system: SM101 E. coli; settings: previously found; read-out: EC50 proliferation of SM101 E. coli; cited from earlier work
[3] = test system: methicillin-resistant S. aureus; settings: previously found; read-out: EC50 proliferation of methicillin-resistant S. aureus; cited from earlier work
[4] = test system: Klebsiella pneumoniae strain NCTC 9633 (ATCC #13883); settings: previously found; read-out: EC50 proliferation of K. pneumoniae; cited from earlier work
[5] = molecular target: T1, E. coli GroEL/ES (Escherichia coli, UniProt P0A6F5); settings: read-out: IC50 GroEL/ES-mediated refolding of denatured rhodanese; previously found; cited from earlier work
T1 construct: made in house; host or cells: GroEL in NEB 5-alpha E. coli; GroES in E. coli BL21 (DE3)
T1 sequence (P0A6F5 2-548): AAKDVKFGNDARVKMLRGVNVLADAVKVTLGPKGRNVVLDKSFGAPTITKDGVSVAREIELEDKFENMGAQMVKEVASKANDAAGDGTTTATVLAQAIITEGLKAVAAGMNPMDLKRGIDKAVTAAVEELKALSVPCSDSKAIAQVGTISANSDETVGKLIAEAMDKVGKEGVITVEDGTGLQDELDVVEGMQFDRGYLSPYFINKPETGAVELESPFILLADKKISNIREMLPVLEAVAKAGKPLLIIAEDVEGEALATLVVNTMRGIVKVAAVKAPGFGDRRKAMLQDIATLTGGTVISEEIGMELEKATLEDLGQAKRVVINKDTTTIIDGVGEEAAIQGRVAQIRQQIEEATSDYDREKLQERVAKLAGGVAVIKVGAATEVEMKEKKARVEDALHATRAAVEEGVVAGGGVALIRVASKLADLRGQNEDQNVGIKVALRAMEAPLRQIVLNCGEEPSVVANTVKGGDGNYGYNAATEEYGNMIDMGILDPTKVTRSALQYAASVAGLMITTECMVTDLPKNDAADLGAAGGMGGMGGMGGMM

[6] = test system: B. subtilis; settings: previously found; read-out: EC50 proliferation of B. subtilis; cited from earlier work
[7] = molecular target: T1, E. coli GroEL/ES; settings: read-out: IC50 GroEL/ES-mediated refolding of denatured malate dehydrogenase; previously found; cited from earlier work
[8] = test system: compound 17 resistant E. coli
[9] = test system: nitrofurantoin resistant E. coli; type: cell-based, Escherichia coli

Compound: COc1ccc(C(=O)N/N=C/c2ccc(O)c3ncccc23)cc1 [Compound 1, N′-((8-hydroxyquinolin-5-yl)methylene)-4-methoxybenzohydrazide]
- pEC50 [1]: 4.49
- pEC50 [2]: 4.72
- pEC50 [3]: 4.25
- pEC50 [4]: 4.02
- pIC50 [5]: 4.74
- pEC50 [6]: 4.08
- pIC50 [7]: 4.51

Compound: O=C(N/N=C/c1ccc([N+](=O)[O-])o1)c1ccc(O)cc1 [Nifuroxazide, reference compound]
- 17-resistant strains susceptible to the other inhibitor [8]: susceptible
- response of nitrofurantoin-resistant strains to the other inhibitor [9]: still sensitive

Compound: O=C(N/N=C/c1ccc([N+](=O)[O-])o1)c1ccc(Cl)s1 [Compound 17, 5-chloro-N′-((5-nitrofuran-2-yl)methylene)thiophene-2-carbohydrazide]
- response of nitrofurantoin-resistant strains to the other inhibitor [9]: still sensitive

Compound: O=C1CN(/N=C/c2ccc([N+](=O)[O-])o2)C(=O)N1 [Nitrofurantoin, reference compound]
- 17-resistant strains susceptible to the other inhibitor [8]: not
